Data: patent EP4111863A1, “PHOSPHORUS USE EFFICIENCY ENHANCERS AS PLANT GROWTH PROMOTORS” (EuroChem Antwerpen, priority 2021, dated 2023)

tested on: SPX1; test: Chemical activity assessment: SPX1 phosphate starvation biomarker, pSPX1::GUS reporter line, GUS stained area; format: in vivo, Arabidopsis thaliana; conditions: Table 3; 50 µM compound, low phosphate modMS liquid medium, 7 days after germination; low phosphate control average of the same plate
Protocol: All Arabidopsis plant experiments were performed using the Arabidopsis thaliana Columbia-0 background. The Arabidopsis pSPX1::GUS line is described in the […] 2008, 54: 965-975. For rice, the cultivar Nipponbare was used. For maize, the cultivars DKC 2931 and B104 were used for regular pot experiments and sand-based pot experiments, respectively. For soybean, the cultivar Primus was used. […] The medium was solidified due to the addition of 0,6% Gelrite, unless stated otherwise. In case of vertical plates (root length and root hair measurements), the medium was supplied with 0.5% of sucrose and 1 µM (low phosphate, 1 µM KH2PO4, 9.9 mM KCI), 10 µM (low phosphate 10 µM KH2PO4, 9.9 mM KCI) or 1.25 mM KH2PO4 (high phosphate). Arabidopsis seeds were stratified for 2 days at 4 °C before germination. Seedlings were germinated in climate-controlled growth chambers at 22 °C under continuous light (100 µmol m^-2 s^-1). Husked rice seeds were germinated on wetted Whatman paper for 2 days at 37 °C and then transferred to Sterivent boxes or square Petri dishes with solid medium. Maize and soybean seeds were wetted 24 hours at room temperature prior to sowing in pots.
For the chemical activity assessment 3 to 8 seeds per well of Arabidopsis pSPX1::GUS line were sown in 96-well plates containing 150 µl of low phosphate modMS liquid medium containing 1% of sucrose. Compounds were added in 50 µM concentration, starting from a 5 mM stock of compounds solved in DMSO. Different chemical substances were separately added to different wells. Per plate, 16 control wells were used, 8 containing only the low phosphate medium and 1% DMSO, and 8 containing high phosphate medium and 1% DMSO. 7 days after germination, plates were scanned using a flatbed scanner (EPSON Expression 11000XL) and analyzed for leaf size. After scanning, the growth medium was replaced by GUS staining solution (see Plant Mol. Biol. Rep. 1994, 12: 37-42 for details) and incubated for 1.5 hours at 37 °C. The plates were scanned a second time and analyzed for GUS signal area. Measurements of both leaf area and GUS signal area were conducted by filtering out and measure the green and blue signal, respectively using ImageJ software. If the green leaf area was 50% or less than the control, samples were omitted. Additionally, all results were visually screened for leaf size and GUS signal.

SMILES	GUS (SPX1) stained area normalized to the number of seeds (pixels)
CCc1cc2c(=O)n(CC(=O)N3CCOC(C)C3)cnc2s1 (stereo not shown)	0
CC1CN(C(=O)Cn2nc(-c3cccs3)oc2=O)CCO1 (stereo not shown)	0
CCC1CN(C(=O)c2[nH]nc(C)c2Br)CCO1 (stereo not shown)	0
CC1(C)CN(c2snc(Cl)c2C#N)CCO1	0
FC(F)(F)c1ccnc(N2CCOC(c3nccs3)C2)n1 (stereo not shown)	0
C=CCn1c(SCc2cccc(S(=O)(=O)N3CCOCC3)c2)nc2ccccc21	1
c1cc2c(cc1C1CCCN1c1nc(CN3CCOCC3)nc3sc4c(c13)CCC4)OCCO2 (stereo not shown)	1
COC(=O)C1CN(c2ccc(C(F)(F)F)cn2)C[C@@H](C)O1 (stereo partly shown)	1
c1ccc2sc(SN3CCOCC3)nc2c1	1
CC(C)CCNC(=O)c1cc(S(=O)(=O)N2CCOCC2)cn1C	1
CC1CN(Cc2nc(-c3ccc(Br)s3)no2)CCO1 (stereo not shown)	1
C[C@@H](CO)NS(=O)(=O)c1ccc(S(=O)(=O)N2CCOCC2)cc1	1
CC1CN(S(=O)(=O)CCNc2nc(-c3ccncc3)nc3ccccc23)CC(C)O1 (stereo not shown)	1
O=C(NCC(c1ccc(F)cc1)N1CCOCC1)C12CC3CC(CC(C3)C1)C2 (stereo not shown)	1
O=C(c1csc(-c2cccs2)n1)N1CCOC2CCCCC21 (stereo not shown)	2
CC1CN(Cc2csc(NC(=O)c3ccco3)n2)CC(C)O1 (stereo not shown)	2
CCCn1nc(C(=O)N2CC(C)OCC2C)ccc1=O (stereo not shown)	2
c1coc(CNc2nc(N3CCOCC3)nc3ccccc23)c1	2
NC(=O)C1COCCN1c1cnc2cc(Cl)c(Cl)cc2n1 (stereo not shown)	3
O=C1Nc2ccccc2SC1Nc1ccc(F)c(S(=O)(=O)N2CCOCC2)c1 (stereo not shown)	3
O=C(c1cccs1)C(C(c1ccc(Cl)cc1)N1CCOCC1)N1CCOCC1 (stereo not shown)	3
CN(Cc1ccccc1N1CCOCC1)C(=O)C12CC3CC(CC(C3)C1)C2	3
O=S(=O)(c1ccc(OCCN(C2CC2)C2CCCc3ccccc32)cc1)N1CCOCC1 (stereo not shown)	3

SMILES	GUS (SPX1) stained area normalized to the number of seeds (pixels)
COc1ccc(-c2[nH]c3ccccc3c2CCC(=O)N2CCOCC2)cc1	3
O=C(COc1cc(Cl)ccc1Cl)NCc1ccc(N2CCOCC2)nc1	3
Fc1ccc(C2CN(Cc3nnsc3Cl)CCO2)cc1 (stereo not shown)	3
CCC1CN(Cn2nc3ccccn3c2=S)CCO1 (stereo not shown)	3
Cc1ccc(CS(=O)(=O)c2nnc(N3CCOCC3)n2C)cc1	4
CC1CN(C(=O)c2c(Cl)nc3ccccn23)C(C)CO1 (stereo not shown)	4
C=CCCN1CC(C(=O)OC)O[C@H](C)C1 (stereo partly shown)	5
O=C(CSc1ccc(F)cc1)Nc1ccc(Cl)c(S(=O)(=O)N2CCOCC2)c1	5
CC(C)(C)c1n[nH]c(C2CN(C(=O)c3ccc[nH]3)CCO2)n1 (stereo not shown)	5
O=C(C1=C(O)C(=O)N(CCN2CCOCC2)C1c1ccccc1)c1cccs1 (stereo not shown)	5
CCc1cc(N2CC(C)OCC2c2ccccc2)nc(-c2ccccn2)n1 (stereo not shown)	5
Cc1csc(C2CN(Cc3ncc(C(C)(C)C)o3)CCO2)n1 (stereo not shown)	5
CC(C)(C)CC(C)(C)NCc1cnc(N2CCOCC2)nc1	5
CN1CCOC(C(=O)NC(c2c(F)cccc2F)C(F)(F)F)C1 (stereo not shown)	5
CC1(C)CN(C(=O)c2csc(-c3cccs3)n2)CCO1	6
c1cc2c(cc1Sc1nc(CN3CCOCC3)nc3sc4c(c13)CCC4)OCCO2	6
O=S(=O)(c1ccc(Sc2nnc(-c3ccncc3)[nH]2)nc1)N1CCOCC1	6
Cn1cccc1C1COCCN1CCOCC1CC1 (stereo not shown)	6
Cc1cnn(CC2CN(C(C)C(=O)Nc3cc(C)no3)CCO2)c1 (stereo not shown)	7
CCC(CC)C(CNC(=O)c1cc(C)nc2onc(C)c12)N1CCOCC1 (stereo not shown)	7
Cc1cnc(CN2CCOC(c3nc(C(C)C)n[nH]3)C2)o1 (stereo not shown)	7
O=C(COn1nnc2ccc(Cl)cc21)Nc1cc(S(=O)(=O)N2CCOCC2)ccc1Cl	7
CCN(CC)S(=O)(=O)c1ccc(N2CCOCC2)c(NC(=O)c2ccccc2OC)c1	7

SMILES	GUS (SPX1) stained area normalized to the number of seeds (pixels)
CC(C)(C)Nc1nn(CN2CCOCC2)c(=S)s1	7
CC(C)CC1COCCN1C(=O)Nc1nnc(C(F)(F)F)s1 (stereo not shown)	7
CC1CN(C(C)(C)CNC(=O)C2CCCN2C2CCN(CC(F)(F)F)CC2)CC(C)O1 (stereo not shown)	7
COc1cccc(C(c2c(-c3ccccc3)n(O)c3ccccc23)N2CCOCC2)c1 (stereo not shown)	54
CC1CN(c2ccc([N+](=O)[O-])nc2)CC(c2ccsc2)O1 (stereo not shown)	55
CC1CN(S(=O)(=O)N(CC2CCOC2)C2CC2)CC(C)O1 (stereo not shown)	60
CCC1CN(C(=O)C(C)OCC2CC2)CC1N1CCOCC1 (stereo not shown)	62
CN1CCOC(C(=O)N2CCN(CC3CC3)c3ccccc32)C1 (stereo not shown)	64
CC(CNC(=O)N1CCCCC1c1cccn1C)CN1CCOCC1 (stereo not shown)	65
C#CCNC(=O)CN1CCOC(CC)C1 (stereo not shown)	66
CCCCS(=O)(=O)N1CCOCC1c1noc(C(C)C)n1 (stereo not shown)	73
CC(NC(=O)N1CCOC(CO)C1)c1ccc(Br)cc1 (stereo not shown)	129
CCc1ccc(C(C)NCC2(N3CCOCC3)CCSC2)o1 (stereo not shown)	151
O=C(C1CSCN1C(=O)CC1=CCCCC1)N1CCOCC1 (stereo not shown)	162
CCN1CCOC(CNCc2ccc(-n3cncn3)cc2)C1 (stereo not shown)	301
CN(C)c1nc(CN2CCOCC2CC(=O)c2ccco2)ns1 (stereo not shown)	330
NC(=O)C1CN(C(=O)C2(c3cccc(C(F)(F)F)c3)CC2)CCO1 (stereo not shown)	349
CCc1ncncc1C(=O)NCCN1CC(C)OC(C)C1 (stereo not shown)	362
CC1CN(C(C)c2nc(C3CC3)no2)CCO1 (stereo not shown)	441
CC(c1nnc(-c2cccs2)o1)N1CCOC(c2nccs2)C1 (stereo not shown)	453
Clc1cnccc1N1CCC(OCCN2CCOCC2)CC1	491
